Source: ChEMBL document CHEMBL5154904, “Discovery and Structural Basis of the Selectivity of Potent Cyclic Peptide Inhibitors of MAGE-A4” (J Med Chem, 2022)
Calls of active or inactive are those of the source. The calls are words filed in the database; no cut-off is given here. Positions of bridges follow the written chain, without caps; N, C: chain ends. Residues, ends and D or L forms follow the SMILES beside them.

Columns and labels:
[1] = target: T1, Melanoma-associated antigen 4 (Homo sapiens, UniProt P43358); test: Inhibition of Eu-W1024 streptavidin-labeled MAGEA4 (unknown origin) expressed in Escherichia coli BL21-(DE3) incubated for 30 to 60 mins by LANCE TR-FRET assay
T1 sequence (P43358 whole entry): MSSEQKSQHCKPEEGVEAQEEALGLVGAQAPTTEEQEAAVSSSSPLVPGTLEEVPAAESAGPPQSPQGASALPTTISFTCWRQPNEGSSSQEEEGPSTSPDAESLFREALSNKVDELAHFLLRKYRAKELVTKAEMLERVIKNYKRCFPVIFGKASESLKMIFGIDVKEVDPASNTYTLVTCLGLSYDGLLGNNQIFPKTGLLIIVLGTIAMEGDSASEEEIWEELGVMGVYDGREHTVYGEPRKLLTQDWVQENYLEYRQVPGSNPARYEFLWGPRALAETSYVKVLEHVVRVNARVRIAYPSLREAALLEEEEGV

[2] = target: T1, Melanoma-associated antigen 4; test: Binding affinity to recombinant N-terminal His-tagged MAGEA4-MH domain (unknown origin) expressed in Escherichia coli BL21-(DE3) by isothermal titration calorimetry
[3] = Inhibition of biotinylated Eu-W1024 streptavidin-labeled MAGEA4 (unknown origin) expressed in Escherichia coli BL21-(DE3)/GST-tagged RAD18 (unknown origin) (267 to 402 residues) interaction using Ulight-anti-GST antibody incubated for 30 to 60 mins by LANCE TR-FRET assay; parameters: species or system Homo sapiens
[4] = target: T1, Melanoma-associated antigen 4; test: Binding affinity to MAGEA4 (unknown origin) expressed in Escherichia coli BL21-(DE3) by isothermal titration calorimetry
[5] = species on record: Homo sapiens; test: Binding affinity to recombinant N-terminal His-tagged MAGEA4-MH domain Y5A mutant (unknown origin) expressed in Escherichia coli BL21-(DE3) assessed as inhibition of protein stabilization at 10 uM by TR-FRET assay
[6] = target: T2, Melanoma-associated antigen 4 (Homo sapiens) (UniProt P43358); test: Binding affinity to recombinant N-terminal His-tagged MAGEA4-MH domain (unknown origin) expressed in Escherichia coli BL21-(DE3) assessed as protection in trypsin-induced MAGEA4 protein degradation incubated for 1 hr by proteolysis based SDS-PAGE analysis
T2 sequence (whole entry): T1 sequence (P43358 whole entry)

Row | IC50 [1] [nM] | Kd [2] [nM] | IC50 [3] [nM] | Kd [4] [nM] | Activity [5] | Activity [6] | Compound
1 | < 1 | 6.5 | < 10 | 11.8 | – | – | CC(C)C[C@@H]1NC(=O)[C@H](CCCNC(=N)N)NC(=O)[C@H](CS)NC(=O)[C@H](Cc2ccc(O)cc2)NC(=O)CSC[C@@H](C(N)=O)NC(=O)[C@H](Cc2ccc(O)cc2)NC(=O)[C@H]([C@@H](C)O)NC(=O)[C@H](CCCNC(=N)N)NC(=O)[C@H]2CCCN2C(=O)[C@H](CC(C)C)NC(=O)[C@H](Cc2cnc[nH]2)NC(=O)[C@H](Cc2ccc(O)cc2)NC(=O)[C@H](CC(=O)O)NC(=O)[C@H](Cc2ccc(O)cc2)NC1=O
2 | 1.26 | 47.4 | 13.5 | 55.5 | – | – | CC(C)C[C@@H]1NC(=O)[C@H]([C@H](C)O)NC(=O)[C@H](C(C)C)NC(=O)[C@H](Cc2ccc(O)cc2)NC(=O)CSC[C@@H](C(N)=O)NC(=O)[C@H]([C@@H](C)O)NC(=O)[C@H]2CCCN2C(=O)[C@H](Cc2ccccc2)NC(=O)[C@H](CCCNC(=N)N)NC(=O)[C@H](CC(N)=O)NC(=O)[C@H](Cc2ccccc2)NC(=O)[C@H]([C@@H](C)O)NC(=O)[C@H](CCCNC(=N)N)NC1=O
3 | – | – | – | – | Active | – | CC[C@H](C)[C@@H]1NC(=O)[C@H](Cc2ccc(O)cc2)NC(=O)CSC[C@@H](C(N)=O)NC(=O)[C@H](CC(N)=O)NC(=O)[C@H](Cc2cnc[nH]2)NC(=O)[C@H](Cc2ccc(O)cc2)NC(=O)[C@H](CC(=O)O)NC(=O)[C@H](C)NC(=O)[C@H](CC(C)C)NC(=O)[C@H](CCCNC(=N)N)NC1=O ({CH2CO}-YIRLADYHNC-NH2; thioether N-10)
4 | < 10000 | – | – | – | – | Active | Ac-YIRLYDYHNC-NH2
